Numbered stars: 1 amine (or outer) side, 2 acyl side, 3 side chain; on linkers, the order of the positions; unused ones are H or OH. Bridge positions count the residues as written; N and C are the ends. Square brackets hold non-standard residues; d marks the D form. Peptide text beside a SMILES is read from it. I, II: the chains in the order shown. Actinocin(9to1) = Cc1c2oc3c(C)ccc(C(=O)[*:1])c3nc-2c(C(=O)[*:2])c(N)c1=O; NMeV = CN[C@H](C(=O)O)C(C)C; Sar = CNCC(=O)O
Experiments:
[1] = tested on: Raji cells; assay: CD20 expression in Raji cells (flow cytometry of surface CD20, western blotting); assay type: cell-based; conditions: for cell surface expression of CD20: 48 hours, flow cytometry, Kif 25 μM, Swain 25 μM, DMJ 1 mM, DIM 1 mM (FIG. 1A, 1C); for effect on Kif mediated CD20 upregulation: with Kif 25 μM, actinomycin D 10 μg/ml, cycloheximide 100 μg/ml, 48 hours (FIG. 2A)
Description: (§1) FIGS. 1A-1E relate to kifunensine (“Kif”) induced expression of CD20. Raji cells were incubated with Kif for 48 hours and CD20 levels on the cell surface levels were analyzed by flow cytometry (FIG. 1A) and in whole cell lysate by western blotting (FIG. 1B). Raji cells were preincubated with Kif (25 μM), Swain (25 μM), DMJ (1 mM), and DIM (1 mM) or vehicle for 48 hours, and the cell surface levels of CD20 were analyzed by flow cytometry (FIG. 1C). Cells were incubated with Kif (25 μM) or vehicle for 48 hours and the cell surface levels of CD20 were analyzed by flow cytometry (FIG. 1D). Raji and rituximab resistant cells were incubated with Kif (25 μM) or vehicle for 48 hours and the cell surface levels of CD20 were analyzed by flow cytometry (FIG. 1E). Results are presented as a percentage of MFI of vehicle treated control cells (±SD). Statistical significance was determined with Kruskal-Wallis test, *P<0.033, **P<0.002, ****P<0.001, vs control.
Staining of surface antigens. Cells were treated for 48 hours with the described inhibitors at the indicated concentrations or with DMSO controls. Cells were then harvested, washed twice with cold flow buffer (PBS (GIBCO) containing 0.5% BSA and 0.1% sodium azide (Fisher)), stained for 1 hour with 0.25 μg of anti-CD20 mAb (clone 2H7) conjugated with Super Bright 645 (eBioscience, ThermoFisher Scientific), then washed twice with flow buffer, and finally the cells were incubated with flow buffer containing 2.5 μg/mL 7-aminoactinomycin (7-AAD, eBioscience, ThermoFisher Scientific) for 10 minutes prior to being analyzed using an Attune NxT Flow Cytometer. CD20 expression was assessed in 7-AAD negative cells.

[2] = tested on: Raji cells and Rituximab resistant Raji 4RH cells; assay: In vivo CD20 expression in subcutaneous Raji and Raji 4RH tumors (Western blot); conditions: SCID mice, i.p., 10 mg/kg every second day over 8 days
Description: In vivo increase in CD20 expression of Raji cells and Rituximab resistant Raji 4RH cells. A study was performed to determine whether Kif can increase the expression of CD20 on Raji cells and Rituximab resistant Raji 4RH cells that had been subcutaneously inoculated into the flank of six week old SCID mice. After inoculation, tumors were permitted to grow for 10 days prior to treatment initiation. The mice were randomly divided into control and treatment groups. Control group received PBS, while the treatment group received Kif (i.p., 10 mg/kg) every second day over an 8 day period. The mice were then scarified, tumors were harvested, and CD20 expression was assessed by Western blot.

[3] = tested on: MS4A1; assay: CD20 mRNA (MS4A1) expression by RT-PCR; assay type: cell-based; conditions: Raji cells, Kif 25 μM, 48 hours, RT-PCR (FIG. 2B)
Description: FIGS. 2A-2B illustrates that Kif mediates CD20 upregulation occurs upstream of transcription and translation. Cells were incubated with Kif (25 μM), Kif (25 μM) plus actinomycin D (10 μg/ml), Kif (25 μM) plus cycloheximide (100 μg/ml), or vehicle control (Con) for 48 hours and the cell surface levels of CD20 were analyzed by flow cytometry (FIG. 2A). Cells were incubated with Kif (25 μM) or vehicle control (Con) for 48 hours and CD20 mRNA levels were analyzed by RT-PCR (FIG. 2B).

[4] = tested on: panel of cells lines representing diffuse large B cell lymphoma, Burkitt lymphoma, and follicular lymphoma; assay: Cell surface CD20 in a panel of B cell lymphoma cell lines (flow cytometry); assay type: cell-based; conditions: 25 μM, 48 hours, flow cytometry (FIG. 1D)
Description: as §1
(§2) Staining of surface antigens. Cells were treated for 48 hours with the described inhibitors at the indicated concentrations or with DMSO controls. […] CD20 expression was assessed in 7-AAD negative cells.

[5] = tested on: rituximab resistant cell lines (Raji 2R, Raji 4RH, RL 4RH); assay: Cell surface CD20 in rituximab resistant cell lines (flow cytometry); assay type: cell-based; conditions: 25 μM, 48 hours (FIG. 1E)
Description: as §1, §2

[6] = tested on: patient derived primary CLL samples; assay: CD20 expression in patient derived primary CLL samples; assay type: cell-based
[7] = tested on: Raji cells; assay: Histone acetylation in Raji cells; assay type: cell-based
[8] = tested on: malignant B cell lines; assay: CDC assay with anti-CD20 antibody and pooled human serum; assay type: cell-based
Description: FIGS. 3A-3B illustrate Kif potentiates the activity of anti-CD20 antibodies in vitro. Cells were incubated with Kif (25 μM) or vehicle control (Con) for 48 hours prior to rituximab mediated ADCC (FIG. 3A) or CDC (FIG. 3B). CDC assays. 25 μL of the target cell suspension at 2 million cells/mL (i.e., 50,000 target cells) were added to a 96-well plate. 25 μL of antibody solutions at 4× the indicated concentrations in complete media or complete media were added to experiment wells and the control wells respectively, and the resulting suspensions were incubated for 30 minutes at 37° C. Subsequently, 50 μL of a 20% of pooled human serum in complete media were added to experiment wells and control wells (i.e., no antibody) and the plate was incubated for 1 hours at 37° C. in a fully humidified atmosphere of 5% CO2. Subsequently, 6 uL of 2.5 μg/mL was added to each well and after 10 minutes the plate was analyzed using an Attune NxT Flow Cytometer. Target cell viability was accessed by determining the percentage of 7-AAD positive cells. CDC was calculated as follows: % CDC=% 7-AAD positive target cells in experiment well—% 7-AAD positive target cells in control wells.

[9] = tested on: malignant B cell lines; assay: ADCC assay with anti-CD20 antibody and CD16+ NK-92 effector cells; assay type: cell-based
Description: FIGS. 3A-3B illustrate Kif potentiates the activity of anti-CD20 antibodies in vitro. Cells were incubated with Kif (25 μM) or vehicle control (Con) for 48 hours prior to rituximab mediated ADCC (FIG. 3A) or CDC (FIG. 3B). ADCC assays. Target cells were labelled with CellTrace Violet according to the manufacturer's instructions (ThermoFisher Scientific). In brief, 1 million target cells were washed twice with warm PBS, then stained with 5 μM CellTrace Violet in PBS for 20 minutes at 37° C. Then, 5 volume equivalents of complete media were added and the resulting solution was incubated for 10 minutes at 37° C. The cells were pelleted and washed twice with fresh complete media, and the cell suspension was adjusted to 800,000 cells/mL in complete media. 25 μL of the target cell suspension (i.e., 20,000 target cells) were then in added to a 96-well plate. 25 μL of rituximab solutions at 4× the indicated concentrations in complete media or complete media were added to experiment wells and the control wells respectively, and the resulting suspensions were incubated for 30 minutes at 37° C. Subsequently, 50 μL of a 1.6 million CD-16+ NK-92 cells/mL suspension in complete media (E:T 4:1, i.e., 80,000 effector cells) were added to experiment wells and control wells (i.e., no antibody) and the plate was incubated for 4 hours at 37° C. in a fully humidified atmosphere of 5% CO2. Subsequently, 6 uL of 2.5 μg/mL was added to each well and after 10 minutes the plate was analyzed using an Attune NxT Flow Cytometer. Target cell viability was accessed by determining the percentage of CellTrace Violet and 7-AAD positive cells. ADCC was calculated as follows: % ADCC=% 7-AAD positive target cells in experiment well—% 7-AAD positive target cells in control wells.

SMILES: OC[C@@H](O)[C@H]1NC[C@@H](O)[C@H]1O [DIM, 1,4-dideoxy-1,4-imino-D-mannitol]
- cell surface expression of CD20 ([1]; Raji cells): significantly increase CD20 expression

SMILES: C[C@@H]1C[C@@H]([C@H](O)CC2CC(=O)NC(=O)C2)C(=O)[C@@H](C)C1 [CHX, cycloheximide]
- effect on Kif mediated CD20 upregulation [1]: inhibit Kif mediated CD20 upregulation

SMILES: O[C@H]1[C@H]2[C@H](O)CCCN2C[C@H]1O [Swain, swainsonine]
- cell surface expression of CD20 ([1]; Raji cells): significantly increase CD20 expression

SMILES: Cc1c2oc3c(C)ccc(C(=O)N[C@@H]4C(=O)N[C@H](C(C)C)C(=O)N5CCC[C@H]5C(=O)N(C)CC(=O)N(C)[C@@H](C(C)C)C(=O)O[C@@H]4C)c3nc-2c(C(=O)N[C@@H]2C(=O)N[C@H](C(C)C)C(=O)N3CCC[C@H]3C(=O)N(C)CC(=O)N(C)[C@@H](C(C)C)C(=O)O[C@@H]2C)c(N)c1=O [ACT-D, actinomycin D] (I: T[dV]P[Sar][NMeV] / II: T[dV]P[Sar][NMeV]; ester I:1-I:C, II:1-II:C; linker I:N-II:N via Actinocin(9to1))
- effect on Kif mediated CD20 upregulation [1]: inhibit Kif mediated CD20 upregulation

SMILES: O=C1N[C@@H]2[C@@H](O)[C@@H](O)[C@H](O)[C@@H](CO)N2C1=O [Kif, kifunensine]
- side effects [2]: no side effects were observed
- CD20 expression in tumors ([2]; Western blot, Raji and Raji 4RH): increases the expression of CD20
- expression of MS4A1 [3]: altered the expression of the MS4A1
- CD20 upregulation in panel of cell lines [4]: upregulates CD20
- CD20 expression in rituximab resistant cell lines [5]: significantly increased CD20 expression
- cell surface expression of CD20 ([1]; Raji cells): increases cell surface expression of CD20 in Raji cells in a concentration dependent manner
- CD20 expression by western blotting ([1]; Raji cells, whole cell lysate, 48 hours (FIG. 1B)): increase CD20 expression was confirmed by western blotting
- CD20 expression in primary CLL samples [6]: increases CD20 expression in a dose-dependent and significant manner
- histone acetylation [7]: did not significantly alter histone acetylation
- complement mediated killing without antibody ([8]; Kif treated cells, absence of antibody): more susceptible to complement mediated killing in the absence of antibody
- susceptibility to CDC with rituximab and ofatumumab ([8]; cells treated with Kif prior to CDC (FIG. 3B)): rendered cells more susceptible
- sensitization of rituximab resistant cells to CDC ([8]; rituximab resistant cells, data not shown): not sensitized to CDC
- obinutuzumab potency in combination with Kif ([9]; ADCC): potency of obinutuzumab was also increased
- sensitization of rituximab resistant cell lines to rituximab (ADCC) ([9]; Raji 2R and Raji 4RH): sensitized to the action of rituximab
- rituximab potency in ADCC in combination with Kif ([9]; all cell lines tested, Kif 25 μM 48 hours before rituximab mediated ADCC (FIG. 3A)): potency of rituximab was increased

SMILES: OC[C@H]1NC[C@@H](O)[C@@H](O)[C@@H]1O [DMJ, 1-deoxymannojirimycin hydrochlorie]
- cell surface expression of CD20 ([1]; Raji cells): significantly increase CD20 expression
